Source: patent US20190185544A1, “COMPOSITIONS AND METHODS OF MODULATING ABETA PROTEIN” (University of South Florida, priority 2016, published 2019)

System: N-terminus of APP
Test: Co-immunoprecipitation and co-localisation with N-terminal APP in CHO/APPwt cells
Format: binding, human
Settings: peptides 10 μM or apoE 10 μg/mL, 2 h; IP with 6H3B5 or pN-APP
Experimental: Total secreted APP (t-sAPP) and full-length APP (f-APP) in total (inputs), immunoprecipitates and immunodepleted media and lysates were determined by WB using 22C11 or anti-C-terminal APP751/70 antibody (pC-APP), respectively (FIG. 20A left panels and FIG. 20B, top panels). Alternatively, conditioned media and cell lysates were IP with anti-N-terminal APP41/66 antibody (pN-APP) and apoE, or 6KApoEp and ApoEp, was determined using anti-human apoE antibody (ApoE1H4; FIG. 20A, right panels) or 6H3B5, respectively (FIG. 20B, bottom panels). In addition, CHO/APPwt cells were plated at 8 well-chambers at 1×10^5/well for 24 h, treated with 6K, ApoEp or 6KApoEp at 10 μM for 2 h, fixed in 4% paraformaldehyde and stained with 6H3B5 and pN-APP antibodies (FIG. 20C). Alexa Fluor 488 goat anti-mouse IgG (green) was used to detect ApoEp and 6KApoEp, while Alexa Fluor 594 donkey anti-rabbit IgG (red) was used to detect N-terminal APP. DAPI co-staining was done to show nuclear DNA. Homogenates prepared from three TgAPPwt mice (2 female/1 male), two AD patients (AD1[…], AD2[…]) and two normal age-matched control cortices (Ctrl1[…], Ctrl2[…]) were also IP with 6H3B5 or pN-APP and t-APP and apoE were determined using 6E10 and mApoE, respectively (FIGS. 20D-20E).
Total secreted APP in conditioned media and full length APP in cell lysates were then determined by WB using anti-N-terminal (22C11) and anti-C-terminal APP antibodies (pC-APP), respectively. […] In addition, ApoEp and 6KApoEp colocalized with N-terminal APP in cultured CHO/APPwt cells as determined by immunofluorescence staining with 6H3B5 and pN-APP antibodies (FIG. 20C), respectively, confirming that N-terminal APP physically associates with apoE in cell culture. […]
WB analyses were performed as previously described^43,44. […] For all other proteins detected by WB, 10% tris-SDS gels were used. Densitometry analysis was performed as previously described using a FluorS Multiimager with Quantity One™ software 43. […]

N-terminus of APP, sequence (P05067 18-189 limits assumed): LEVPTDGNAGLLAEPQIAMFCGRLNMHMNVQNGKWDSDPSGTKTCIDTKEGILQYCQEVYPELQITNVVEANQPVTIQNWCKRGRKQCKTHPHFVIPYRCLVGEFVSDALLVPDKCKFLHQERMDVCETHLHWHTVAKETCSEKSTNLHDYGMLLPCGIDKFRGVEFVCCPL

ApoE3: human recombinant apolipoprotein E3 protein (BioVision)
immunoprecipitation and localization with N-terminal APP: immunoprecipitated and localized with N-terminal APP in vivo and in vitro

ApoE4: human recombinant apolipoprotein E4 protein (BioVision)
immunoprecipitation and localization with N-terminal APP: immunoprecipitated and localized with N-terminal APP in vivo and in vitro
